Here are results for five compounds from US6458811B1, “Benzothiophenes formulations containing same and methods” (Eli Lilly and Company, priority 1996, dated 2002).

Where a name gives a salt, the structure may show the parent alone.

The nature of data set [1]: Plasma AUC of unconjugated raloxifene in rats dosed in diet. It counts as in vivo, Fischer 344 rats. The note with it: 0.4% w/w in diet for seven days, hydrochloride. As to the method: In an attempt to evaluate these differences upon in vivo absorption, a study was conducted in Fischer 344 rats.
Data set [2] is described as follows: Surface area by nitrogen adsorption (BET). In kind it is physicochemical. The note with it: bulk lot.
The nature of data set [3]: Dissolution of bulk lots handfilled into capsules, 0.1% aqueous polysorbate 80, USP Apparatus II. The note with it: hydrochloride; for % Dissolved: 60.0 mg in capsule; for % Dissolved at 10 Minutes: Table 8, 10 minutes; for % Dissolved at 30 Minutes: Table 8, 30 minutes. It counts as physicochemical. As to the method: Data was collected at 10, 20, 30 and 45 minutes to produce a dissolution profile.

The nature of data set [4]: Particle size distribution by laser light diffraction (Horiba LA900). It counts as physicochemical. Particulars: hydrochloride. Here is the method:
In preparing the particulate compound of the invention a compound of formula I, in its raw state, is first characterized for size using an instrument adapted to measure equivalent spherical volume diameter, that is to say a Horiba LA900 Laser Scattering Particle Size Distribution Analyzer or equivalent instrument.
Sample is added to the dispersant until an acceptable level of laser light obscuration achieved at which point the particle size distribution is measured. […] The dispersant solution was filtered through a 0.2 micron microporous membrane filter to provide the necessary particle-free suspending dispersant.
Within five minutes of the preparation of the dispersion, triplicate particle size measurements were performed. Triplicate measurements are effected as a minimum check a) to produce more reliable measurements and b) to check the equivalent sampling of the suspended material has been reproducible i.e., the suspension has not settled.
From this, the mean equivalent spherical volume diameter value was derived (50% undersize value) together with the standard deviation of the distribution calculated as above.

The subject of another data set is uterotrophic response. Particulars: OVX rats; cited from earlier work.
For a further data set, the system named is MCF-7 cells. Particulars: MCF-7 cells in cell culture; cited from earlier work.
Data set [5] relates to uterotrophic response to estrogen. The note with it: immature rats, versus tamoxifen; cited from earlier work.

A word on the AUC: it is the area under the concentration-time curve, a measure of exposure. Compound `O=C(c1ccc(OCCN2CCCCC2)cc1)c1c(-c2ccc(O)cc2)sc2cc(O)ccc12` [Lot #1, raloxifene hydrochloride] registered an AUC in data set [1] of 10056 ng·h/mL. Moreover, the “Surface Area” value in data set [2] (hydrochloride) is listed as 6.09 m^2/gm. Besides, the “% Dissolved” value in data set [3] (10 min) stood at 51%; in data set [3] (20 min), 68%; in data set [3] (30 min), 78%; in data set [3] (45 min), 88%. Moreover, the “% Dissolved at 10 Minutes” value in data set [3] was 50%. Further, in data set [3], the “% Dissolved at 30 Minutes” value came to 78%. The compound also yielded a 90% less than in data set [4] (bulk lots of Table 6) of 6.8 μm. In data set [4] (bulk lots of Table 6), the “mean particle size” value is 3.9 μm.

In data set [1], `O=C(c1ccc(OCCN2CCCCC2)cc1)c1c(-c2ccc(O)cc2)sc2cc(O)ccc12` [Lot #2, raloxifene hydrochloride] came in with an AUC of 8037 ng·h/mL. Moreover, the “Surface Area” value in data set [2] (listed as #2, hydrochloride) turned out to be 2.28 m^2/gm; in data set [2] (listed as lot #2, hydrochloride), 2.28 m^2/gm. For the same compound, the “% Dissolved” value was found to be 41% in data set [3] (10 min), 60% in data set [3] (20 min), 68% in data set [3] (30 min) and 74% in data set [3] (45 min). Besides, the “% Dissolved at 10 Minutes” value in data set [3] is given as 41%. For the same compound, in data set [3], the “% Dissolved at 30 Minutes” value worked out at 68%. The mean particle size in data set [4] (as restated) was 8.4 microns; in data set [4] (bulk lots of Table 6) it was 8.4 μm. The same compound gave a 90% less than in data set [4] (bulk lots of Table 6) of 13.9 μm.

With `O=C(c1ccc(OCCN2CCCCC2)cc1)c1c(-c2ccc(O)cc2)sc2cc(O)ccc12` [Lot #3, raloxifene hydrochloride], the AUC in data set [1] was 5743 ng·h/mL. The “Surface Area” value in data set [2] (hydrochloride) was 2.10 m^2/gm. The “% Dissolved” value in data set [3] (10 min) is listed as 31%; in data set [3] (20 min), 45%; in data set [3] (30 min), 54%; in data set [3] (45 min), 64%. The “% Dissolved at 10 Minutes” value in data set [3] is given as 31%. Further, the “% Dissolved at 30 Minutes” value in data set [3] is listed as 55%. Moreover, the mean particle size in data set [4] (as restated) is 23.3 microns. The 90% less than in data set [4] (bulk lots of Table 6, Ball Milled bulk lot) worked out at 55.3 μm; in data set [4] (bulk lots of Table 6, Slurry Milled bulk lot) it was 89 μm.

In data set [1], `O=C(c1ccc(OCCN2CCCCC2)cc1)c1c(-c2ccc(O)cc2)sc2cc(O)ccc12` [Lot #4, raloxifene hydrochloride] came in with an AUC of 3329 ng·h/mL. Besides, the “% Dissolved” value worked out at 15% in data set [3] (10 min), 27% in data set [3] (20 min), 35% in data set [3] (30 min) and 49% in data set [3] (45 min). In addition, the “% Dissolved at 10 Minutes” value in data set [3] is 15%. The “% Dissolved at 30 Minutes” value in data set [3] came out at 35%.

Turning to `O=C(c1ccc(OCCN2CCCCC2)cc1)c1c(-c2ccc(O)cc2)sc2cc(O)ccc12` [Raloxifene, 6-hydroxy-2-(4-hydroxyphenyl)-3-[4-(2-piperidinoethoxy)benzoyl]benzo[b]-thiophene], in the data set with uterotrophic response, the uterotrophic response result is recorded as “only minimal uterotrophic response that was not dose-dependent”. The “inhibition of estrogen-dependent proliferation” value in the data set with MCF-7 cells is “inhibits estrogen-dependent proliferation”. Besides, the “antagonism of the uterotrophic response to estrogen” value in data set [5] was “more effective than tamoxifen”.
